Assay results published in paper PMC5612656, “In vitro and in vivo effects of 2,4 diaminoquinazoline inhibitors of the decapping scavenger enzyme DcpS: Context-specific modulation of SMN transcript levels” (PLoS ONE, 2017).

Tested on: spinal cord transcriptome
Test: RNA-Seq of spinal cord tissue from 2B/- and 2B/+ mice
Assay type: in vivo, mouse
[1] = 2B+ spinal cord RNA Seq polyA, WT-RG vs. WT-Veh, adjusted p-value 1.01E-05
[2] = 2B+ spinal cord RNA Seq polyA, WT-RG vs. WT-Veh, adjusted p-value 3.86E-06

## Nc1nc(N)c2c(OCC3CCN(Cc4c(Cl)cccc4Cl)CC3)cccc2n1 [RG3039]
[1]
  log2(fold-change) 4632404H12Rik transcript: 1.233
  log2(fold-change) Ifi44 transcript: 3.126
  log2(fold-change) Snhg11 transcript: 0.9645
[2]
  log2(fold-change) Scn10a transcript: -4.931
  log2(fold-change) Tmem233 transcript: -5.091
2B-Veh vs 2B-RG3039
  log2(fold-change) 1700024P16Rik: -0.9143
  log2(fold-change) 2010001M06Rik: -0.4589
  log2(fold-change) 2810417H13Rik: 0.7557
  log2(fold-change) 2810459M11Rik: 0.8489
  log2(fold-change) 6330444E15Rik: -1.493
  log2(fold-change) 8430408G22Rik: -1.92
  log2(fold-change) A230028O05Rik: -1.123
  log2(fold-change) AI429214: -0.7864
  log2(fold-change) AW495222: -0.8389
  log2(fold-change) Abcc4: -0.4948
  log2(fold-change) Acacb: -0.9081
  log2(fold-change) Acer2: -1.144
  log2(fold-change) Ada: -2.097
  log2(fold-change) Adhfe1: -0.3934
  log2(fold-change) Adipor2: -1.046
  log2(fold-change) Adm: -0.7407
  log2(fold-change) Alox12: 1.236
  log2(fold-change) Alpl: 0.9933
  log2(fold-change) Angptl2: 0.7515
  log2(fold-change) Angptl4: -1.6266
  log2(fold-change) Apln: 0.547
  log2(fold-change) Aplnr: 1.065
  log2(fold-change) Arrdc2: -1.418
  log2(fold-change) Arrdc3: -0.727
  log2(fold-change) Aspm: 0.9497
  log2(fold-change) Aurkb: 0.7105
  log2(fold-change) BC049352: -1.185
  log2(fold-change) BC064078: -0.6877
  log2(fold-change) Barx2: 0.4279
  log2(fold-change) Bdh2: -0.7221
  log2(fold-change) Bst2: 1.093
  log2(fold-change) Btbd16: -0.8478
  log2(fold-change) Bub1b: 0.7302
  log2(fold-change) C130074G19Rik: 0.558
  log2(fold-change) C330021F23Rik: 1.369
  log2(fold-change) C430049B03Rik: 0.7515
  log2(fold-change) Casc5: 0.9628
  log2(fold-change) Ccdc150: -0.9419
  log2(fold-change) Ccna2: 0.5769
  log2(fold-change) Ccnb1: 0.5224
  log2(fold-change) Ccnb2: 0.5384
  log2(fold-change) Cd101: -0.9911
  log2(fold-change) Cd248: 0.749
  log2(fold-change) Cdk1: 0.4623
  log2(fold-change) Cdkn1a: -0.7839
  log2(fold-change) Chaf1b: 0.7063
  log2(fold-change) Chodl: 0.3892
  log2(fold-change) Col8a1: 0.5045
  log2(fold-change) Col12a1: 0.6621
  log2(fold-change) Colq: -0.452
  log2(fold-change) Crispld1: 0.7708
  log2(fold-change) Cth: -0.9118
  log2(fold-change) Cxcl12: 0.9102
  log2(fold-change) D630039A03Rik: -0.7287
  log2(fold-change) Dao: -0.6435
  log2(fold-change) Dcxr: -0.6455
  log2(fold-change) Ddit4: -0.977
  log2(fold-change) Ddo: -0.6951
  log2(fold-change) Depdc1b: 0.6712
  log2(fold-change) Dlgap5: 0.6868
  log2(fold-change) Dnah8: 0.7242
  log2(fold-change) Dtl: 0.8053
  log2(fold-change) E230015J15Rik: -1.036
  log2(fold-change) Edn1: -1.282
  log2(fold-change) Ednrb: 0.7966
  log2(fold-change) Egfl6: 0.8631
  log2(fold-change) Elf5: 0.6236
  log2(fold-change) Entpd2: 0.5977
  log2(fold-change) Espl1: 0.7643
  log2(fold-change) Etnppl: -2.764
  log2(fold-change) Ets1: 0.8775
  log2(fold-change) Fabp7: 0.8454
  log2(fold-change) Fam64a: 0.6855
  log2(fold-change) Fam107a: -1.657
  log2(fold-change) Fam214a: -0.4707
  log2(fold-change) Fam83d: -1.4639
  log2(fold-change) Fas: -0.8656
  log2(fold-change) Fgf21: -1
  log2(fold-change) Fgfr4: 1.087
  log2(fold-change) Fkbp5: -1.583
  log2(fold-change) Fli1: 0.4642
  log2(fold-change) Fzd10: 1.186
  log2(fold-change) Galnt15: -1.568
  log2(fold-change) Gatsl3: -1.006
  log2(fold-change) Gkn3: 1.302
  log2(fold-change) Glul: -0.8158
  log2(fold-change) Gm266: 0.9562
  log2(fold-change) Gm807: -1.6695
  log2(fold-change) Gm10309: -1.704
  log2(fold-change) Gm11681: -1.051
  log2(fold-change) Gm13066: -1.415
  log2(fold-change) Gm16316: -0.9137
  log2(fold-change) Gm16958: -0.6452
  log2(fold-change) Gm21984: -0.8301
  log2(fold-change) Gm26645: 0.5748
  log2(fold-change) Gp2: 1.536
  log2(fold-change) Gpr50: 0.6598
  log2(fold-change) Gpx3: -0.9006
  log2(fold-change) Gsg2: 1
  log2(fold-change) Gstm1: -0.9261
  log2(fold-change) Gsx1: 1.082
  log2(fold-change) Hbegf: 0.4821
  log2(fold-change) Heph: -0.6747
  log2(fold-change) Hes5: 1.011
  log2(fold-change) Heyl: 0.7294
  log2(fold-change) Hif3a: -1.3266
  log2(fold-change) Hist1h1c: -0.9093
  log2(fold-change) Hist1h4h: -0.4829
  log2(fold-change) Hpgd: 1.149
  log2(fold-change) Hr: -1.031
  log2(fold-change) Hsf3: -1.087
  log2(fold-change) Iapp: -0.9349
  log2(fold-change) Id3: 0.7631
  log2(fold-change) Ier5: 0.6487
  log2(fold-change) Igf1: 0.4613
  log2(fold-change) Igsf1: 0.614
  log2(fold-change) Il12rb1: -1.3
  log2(fold-change) Itga6: 0.6885
  log2(fold-change) Itgb3: 0.5631
  log2(fold-change) Kcna5: -1.0224
  log2(fold-change) Kcne4: 0.8611
  log2(fold-change) Kdelr3: 0.5886
  log2(fold-change) Kdm4dl: -1.255
  log2(fold-change) Kif2c: 0.8365
  log2(fold-change) Klf15: -1.065
  log2(fold-change) Klhl30: 0.8074
  log2(fold-change) LRRC8A: -0.627
  log2(fold-change) Loxl1: 0.7115
  log2(fold-change) Lrrc8a: -0.9652
  log2(fold-change) Map3k6: -2.942
  log2(fold-change) Matn1: -1.5615
  log2(fold-change) Mcm6: 0.8445
  log2(fold-change) Mertk: -0.6404
  log2(fold-change) Mex3a: 0.9304
  log2(fold-change) Mgmt: -0.5604
  log2(fold-change) Mki67: 0.4816
  log2(fold-change) Mmp14: 0.9436
  log2(fold-change) Mrgprd: 1.807
  log2(fold-change) Mrpl41: -1.248
  log2(fold-change) Mycn: 0.9874
  log2(fold-change) Ncan: 0.7942
  log2(fold-change) Ncapg: 0.8309
  log2(fold-change) Neil3: 0.7885
  log2(fold-change) Nes: 0.5009
  log2(fold-change) Notum: 0.8827
  log2(fold-change) Nusap1: 0.4877
  log2(fold-change) Otoa: -1.049
  log2(fold-change) Pappa: 0.5579
  log2(fold-change) Pbk: 0.5785
  log2(fold-change) Pdk4: -1.799
  log2(fold-change) Per1: -0.8684
  log2(fold-change) Phactr3: -0.7376
  log2(fold-change) Phyhd1: -0.7387
  log2(fold-change) Pilrb2: -1.585
  log2(fold-change) Pirt: 0.7729
  log2(fold-change) Pmaip1: -0.9334
  log2(fold-change) Pmp2: 1.429
  log2(fold-change) Pnpla2: -1.095
  log2(fold-change) Pnpla7: -0.626
  log2(fold-change) Polr3e: -1.443
  log2(fold-change) Ppp1r1b: -1.252
  log2(fold-change) Prc1: 0.5813
  log2(fold-change) Prodh: -0.8352
  log2(fold-change) Pxmp2: -0.9238
  log2(fold-change) Pycr1: 1.135
  log2(fold-change) Rab11fip1: -0.4528
  log2(fold-change) Rasl2-9: -0.693
  log2(fold-change) Reg3b: 1.9386
  log2(fold-change) Rnase1: -0.7662
  log2(fold-change) Rorc: -0.6702
  log2(fold-change) Rsad2: 0.8406
  log2(fold-change) Scn10a: 1.7
  log2(fold-change) Scrg1: -0.8008
  log2(fold-change) Sdpr: -0.7672
  log2(fold-change) Sds: -2.356
  log2(fold-change) Serpinb5: -1.293
  log2(fold-change) Serpinh1: 0.3762
  log2(fold-change) Sgk1: -1.812
  log2(fold-change) Shroom1: -0.6614
  log2(fold-change) Slc13a3: 0.4446
  log2(fold-change) Slc13a5: 0.8562
